Series [1] concerns C85 colorectal adenocarcinoma cells. Nature of the series: Clonogenic assay with C85 colorectal adenocarcinoma cells. The format is cell-based, human. The procedure:
Compounds identified by structure based screening were assayed in a clonogenic assay with C85 colorectal adenocarcinoma cells. Briefly, C85 cells were plated at 200 cells per well in six well plates. Seventy-two hours after plating, compounds 05RB, 0BWP, 0FZK, 0RZL, HBS01, 01LX, 0464, 1BJO AND 27NT were added at various concentrations (See Table 1). Colonies were counted 96 hours after treatment and IC50 concentrations determined (Table 1).

Series [2] has as its system cyclin-B. In words: Ubiquination of cyclin-B in C85 cell lysates (Western blot). Format: cell-based. The note with it: C85 cells treated for 24 hrs. The procedure:
The ability of HBS01 to inhibit protein ubiquination of cyclin-B was assayed in C85 cell lines. Briefly, C85 cells were plated at 200 cells per well in six well plates. Cells were either untreated (controls) or treated for 24 hrs with HBS01. After the treatment period, cells were harvested and extracts were prepared from the cells by freeze fracturing in liquid nitrogen in breakage buffer (50 mM Tris pH 7.5, 1 mM DTT, “Complete” protease inhibitor cocktail (Roche, Cat.# 1697498), 10 μM MG132). Roughly […] of total protein extracts in 300 μl of breakage buffer was supplemented with 20 μg of PHH-Ub (HA and His6 tagged Ubiquitin) and incubated at 30° C. for 60 min. 3×SDS-PAGE sample buffer was added to 40 μl of this reaction and boiled for 3 min. The extracts were run on 12% Laemmli gels and Western Blots were performed with anti-cyclin-B antibody (Santa Cruz Biotechnology, Inc., Santa Cruz, Calif.). Results were visualized by ECL, with the ECL plus western blot detection kit (Amersham Biosciences, Piscataway, N.J.) according to manufacturers instructions.

Series [3] in a line: Maximum tolerated dose in mice. As to conditions: nude, mouse, in vivo.
The test system of series [4] is MCF-7. Nature of the series: MTS cell proliferation assay in MCF-7. Format: cell-based. As to conditions: Homo sapiens, MCF7. The procedure:
(§1) In order to determine the IC50 values of HBS01 an MTS assay was performed on MCF-7 and MCF-7/ADR (adramycin resistance) cell lines. Cells were plated in a 96 well plate at 5,000 cells/well. After plating, cells were treated for 96 hours with either HBS01, methotrexate (MTX), doxyrubicin (DOX), or 5-Fluorouracil (5FU) and an MTS assay was performed according to manufacturer's protocol with the CELL TITER 96 AQ non-radioactive cell proliferation assay kit (Promega, Cat. No. G5421). Viable cells were quantitated based on absorbance at 490 nm. […] Thus, HBS01 was an extremely potent inhibitor of MCF-7 and MCF-7Adr proliferation.

Series [5] deals with MCF-7/ADR (adramycin resistance) cell line. In words: MTS cell proliferation assay in MCF-7/ADR. The format is cell-based. As to conditions: Homo sapiens, NCI/ADR-RES. Here is the method:
as §1

For series [6], the system named is MCF-7 breast cancer cells. Nature of the series: MCF-7 breast cancer tumors in nude mice. Format: in vivo. Here is the method:
MCF-7 breast cancer cell growth was assessed in nude mice (NIH, Cr:(MCr)-Fox1nu(nu/nu homogygous), Taconic Inc., Germantown, N.Y.) treated or pretreated with HBS01 over 31 days. Briefly, pretreated animals were administered three daily doses of HBS01 at 17 mg/Kg given on day −3, −2, and −1 prior to tumor cell injection on day 0. No further treatment was given to the pretreated animals. Nude mice were injected in the flanks with 200,000 MCF-7 breast cancer cells. Treated animals were treated with daily injections of HBS01 at 17 mg/kg per at days 10, 11, 12, 15, 16 and 17 following appearance of palpable tumors on day 10. Tumor diameters were measured with calipers every alternate day and tumor volumes were calculated by ½ab^2 where a is the larger diameter (Friedman, H S., et al. Cancer Res. 46, 2827-2833). The results are shown in FIG. 4 as tumor volume in cm^3.

The subject of series [7] is EGFP marked C85 cells. Nature of the series: Metastatic growth of EGFP marked C85 cells in nude mice. As to conditions: pre-treated 14.5 mg/kg every 24 hrs for five days; ten days post-C85 tail vein injection. Format: in vivo. The procedure: The effect of HBS01 on the metastatic growth of enhanced green fluorescent protein (EGFP) marked C85 cells was assayed in nude mice (NIH, Cr:(MCr)-Fox1nu(nu/nu homogygous), Taconic Inc., Germantown, N.Y.). Briefly, nude mice were pre-treated with 14.5 mg/kg of HBS01 every 24 hrs for five days. At the completion of pre-treatment the pre-treated or control non-treated mice were injected in the tail vein with 1×10^6 EGFP marked C85 cells. Ten days post-C85 injection, the mice were dissected and tumor size assessed based on intravital fluorescence imaging and liver biopsies.

For series [8], the system named is protein ubiquination pathways. In words: Protein ubiquination in C85 cell lysates (HA-tagged ubiquitin Western blot). The format is cell-based. As to conditions: C85 cells treated for 24 or 48 hrs. Here is the method:
Briefly, C85 cells were plated at 200 cells per well in six well plates.
Cells were either untreated (controls) or treated for 24 or 48 hrs with HBS01. After the treatment period, cells were harvested and extracts were prepared from the cells by freeze fracturing in liquid nitrogen in breakage buffer (50 mM Tris pH 7.5, 1 mM DTT, “Complete” protease inhibitor cocktail (Roche, Cat.# 1697498), 10 μM MG132). Roughly […] of total protein extracts in 300 μl of breakage buffer was supplemented with 20 μg of PHH-Ub (HA and His6 tagged Ubiquitin) and incubated at 30° C. for 60 min. 3×SDS-PAGE sample buffer was added to 40 μl of this reaction and boiled for 3 min. The extracts were run on 12% Laemmli gels that were either stained with Coomassie Blue R-250 or blotted with HRP conjugated 12CA5 monoclonal antibody (Roche, Inc., Indianapolis, Ind.) and visualized by ECL, with the ECL plus western blot detection kit (Amersham Biosciences, Piscataway, N.J.) according to manufacturers instructions.

Series [9] concerns C85 human colorectal cancer cells. Nature of the series: C85 colorectal tumors in nude mice. Format: in vivo. Here is the method:
C85 human colorectal cancer cell growth was assessed in nude mice (NIH, Cr:(MCr)-Fox1nu(nu/nu homogygous), Taconic Inc., Germantown, N.Y.) treated or pretreated with HBS01 over a 19 day period. Briefly, pretreated animals were administered three daily doses of HBS01 at 17 mg/Kg given on day −3, −2, and −1 prior to tumor cell injection on day 0. No further treatment was given to the pretreated animals. Nude mice were injected in the flanks with 1 million C85 human colorectal cancer cells. Treated animals were treated with daily injections of HBS01 at 17 mg/kg per at days 10, 11, 12, 15, 16 and 17 following appearance of palpable tumors on day 10.
Tumor diameters were measured with calipers every alternate day and tumor volumes were calculated by ½ab^2 where a is the larger diameter (Friedman, H S., et al. Cancer Res. 46, 2827-2833). The results are shown in FIG. 3 as tumor volume in cm^3.

Setting [10] is: Homo sapiens, C85 cells, colonies counted 96 hours after treatment.
Where [11] appears, read: pretreated animals, 17 mg/Kg on day -3, -2 and -1 prior to tumor cell injection.

In the case of `NC(=O)c1ccc([N+](=O)[O-])cc1Cl` [Compound 0BWP, 2-Chloro-4-nitrobenzamide], in [1] (setting [10]), the IC50 stood at 600000 nM.

Compound `Oc1cc(Cl)cnc1O` [Compound 0FZK, 5-chloro-2,3-dihydroxypyridine] came in with an IC50 in series [1] (setting [10]) of 175000 nM. Against the preceding compound, the IC50 is about 3.4-fold lower.

`Nc1ccc2cn[nH]c2c1` [Compound 0464, 6-AMINOINDAZOLE] yielded an IC50 in series [1] (setting [10]) of 70000 nM.

The compound `CC1CN(c2ccccc2)NC1=O` (centres unmarked) [Compound 0RZL, 1-Phenyl-4-methyl-3-pyrazolidone] yielded an IC50 in [1] (setting [10]) of 50000 nM.

Take `NCC1CCNCC1` [HBS01, 4-(Aminomethyl)piperidine]: the “ubiquination of cyclin-B” value in series [2] was “selectively inhibited the ubiquination of cyclin-B”. Also, the MTD in series [3] came to 1400 mg/kg. In addition, the IC50 in series [4] (MCF-7, treated for 96 hours, MTS) turned out to be 0.03 µM; in [4] (breast cancer cell line MCF-7), 0.03 µM; in [5] (MCF-7Adr, treated for 96 hours, MTS) it was 0.03 µM; in [5] (breast cancer cell line MCF-7Adr), 0.03 µM; in series [1] (Homo sapiens, C85 cells, colonies counted 96 hours after treatment, * denotes nM) it was 30 nM; in series [1] (human colon cancer cell line C85), 30 nM. In [6] (setting [11]), the “onset of tumors (tumor volume)” value is listed as “delayed the onset of MCF-7 tumors”. Also, the “tumor growth (tumor volume)” value in series [6] (treated animals, 17 mg/kg daily at days 10, 11, 12, 15, 16 and 17) is reported as “significantly inhibited tumor growth”; in series [9] (setting [11]), “delayed tumor growth”. The metastatic tumors entry in series [7] is recorded as “metastatic tumors were not detectable”. For the same compound, in series [8], the “general ubiquitin conjugation (ubiquitin intensities and banding patterns)” value is “general inactivation of the ubiquitin conjugation pathways did not occur”. Further, the “growth of established tumors (tumor volume)” value in series [9] (treated animals, 17 mg/kg daily at days 10, 11, 12, 15, 16 and 17, 17 mg/kg) is “significantly inhibited the growth of established tumors”.

Consider `CC(=O)Nc1ccccc1O` [Compound 01LX, 2-Acetamidophenol], for which, in [1] (setting [10]), inhibition was half-maximal at 375000 nM (IC50).

`Nc1ccc(Nc2ccccc2)cc1` [Compound 05RB, N-Phenyl-4-phenylenediamine] gave an IC50 in [1] (C85 cells, colonies counted 96 hours after treatment) of 37500 nM.

The values above are taken from patent US8003572B2 (priority 2004, dated 2011).
